Test results as given in patent publication US9187472B2 (AbbVie Inc., priority 2012, dated 2015).

Tests used:
[1] = target: NAMPT (human, recombinant, C-terminally His-tagged) (Homo sapiens, UniProt P43490); assay: Time-Resolved Fluorescence Resonance Energy Transfer (TR-FRET) Binding Assay of NAMPT; conditions: without substrates; 6.8 nM NAMPT, 200 nM probe, 3 hours equilibration
In short: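 A TR-FRET probe-displacement assay used 6.8 nM His-tagged recombinant human NAMPT, 200 nM Oregon Green 488-labelled nicotinamide-competitive probe and 1 nM Tb-anti-His antibody. Buffer was HEPES pH 7.5 with NaCl, MgCl2, DTT and glycerol, plus 2% DMSO, equilibrated 3 h at room temperature. Em520/Em495 ratios, normalized to controls, gave IC50 by four-parameter logistic fit.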

[2] = test system: PC3 cells; assay: NAMPT Cell Proliferation Assay; type: cell-based; conditions: Homo sapiens, PC-3, 120 h, 5 days incubation, cell viability by Cell Titer Glo
In short: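 IC50 values derive from sigmoidal dose-response fits of percent inhibition of PC3 viability, measured by luminescence after 5 days of compound treatment. Cells (500/well, RPMI containing 10% heat-inactivated FBS) are allowed to attach overnight, and compounds are tested at 10-fold dilutions between 10 μM and 1×10^−5 μM.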

[3] = target: NAMPT (Homo sapiens, UniProt P43490); assay: TR-FRET Binding Assay of NAMPT with PRPP; conditions: with 200 μM PRPP and 2.5 mM ATP; 2 nM NAMPT, 2 nM probe, 16 hours equilibration
Sequence of NAMPT (P43490 whole entry): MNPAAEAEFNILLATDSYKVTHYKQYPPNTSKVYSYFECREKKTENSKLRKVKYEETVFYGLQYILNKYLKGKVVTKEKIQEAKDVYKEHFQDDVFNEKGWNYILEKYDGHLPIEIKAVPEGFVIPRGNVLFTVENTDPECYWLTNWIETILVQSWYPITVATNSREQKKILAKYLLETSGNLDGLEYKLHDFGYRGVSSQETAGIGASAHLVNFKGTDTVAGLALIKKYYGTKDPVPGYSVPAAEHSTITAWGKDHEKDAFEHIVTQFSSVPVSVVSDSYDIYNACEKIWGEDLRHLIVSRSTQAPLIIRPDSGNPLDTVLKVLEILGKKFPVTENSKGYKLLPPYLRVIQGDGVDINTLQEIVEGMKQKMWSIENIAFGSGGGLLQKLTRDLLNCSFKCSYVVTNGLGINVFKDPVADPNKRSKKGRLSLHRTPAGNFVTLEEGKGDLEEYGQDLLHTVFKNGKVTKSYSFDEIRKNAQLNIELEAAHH
In short: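 Human NAMPT (2 nM) with 2 nM probe and 1 nM Tb-anti-His antibody, plus 200 μM PRPP and 2.5 mM ATP, 2% DMSO. TR-FRET read after 16 h equilibration, permitting possible enzymatic modification of test compounds; data processing as for the substrate-free format.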

Sequence of NAMPT (human, recombinant, C-terminally His-tagged) (P43490 whole entry): as above

SMILES | IC50 [1] [nM] | IC50 [2] [nM] | IC50 [3] [nM]
CC(C)(O)C(=O)N1CC[C@@H](Oc2ccc(NC(=O)NCc3ccn4ccnc4c3)cc2)C1 [Example 334, 1-(4-{[(3R)-1-(2-hydroxy-2-methylpropanoyl)pyrrolidin-3-yl]oxy}phenyl)-3-(imidazo[1,2-a]pyridin-7-ylmethyl)urea] | 80.9 | 21.9 | 0.345
O=C(NCc1ccn2ccnc2c1)Nc1ccc(O[C@@H]2CCN(C(=O)[C@H]3CCCO3)C2)cc1 [Example 335, 1-(imidazo[1,2-a]pyridin-7-ylmethyl)-3-[4-({(3R)-1-[(2R)-tetrahydrofuran-2-ylcarbonyl]pyrrolidin-3-yl}oxy)phenyl]urea] | 632 | 97.6 | 0.354
O=C(NCc1ccn2ccnc2c1)Nc1ccc(O[C@@H]2CCN(C(=O)[C@@H]3CCCO3)C2)cc1 [Example 336, 1-(imidazo[1,2-a]pyridin-7-ylmethyl)-3-[4-({(3R)-1-[(2S)-tetrahydrofuran-2-ylcarbonyl]pyrrolidin-3-yl}oxy)phenyl]urea] | 334 | 139 | 0.264
O=C(NCc1ccn2ccnc2c1)Nc1ccc(O[C@@H]2CCN(C(=O)CC3CCOCC3)C2)cc1 [Example 338, 1-(imidazo[1,2-a]pyridin-7-ylmethyl)-3-(4-{[(3R)-1-(tetrahydro-2H-pyran-4-ylacetyl)pyrrolidin-3-yl]oxy}phenyl)urea] | 609 | 81 | 0.394
O=C(NCc1ccn2ccnc2c1)c1ccc(-c2cnn(CC3CCCS(=O)(=O)C3)c2)s1 (stereo not drawn) [Example 344, 5-{1-[(1,1-dioxidotetrahydro-2H-thiopyran-3-yl)methyl]-1H-pyrazol-4-yl}-N-(imidazo[1,2-a]pyridin-7-ylmethyl)thiophene-2-carboxamide] | 36 | 7.46 | 0.169
Cn1cc(-c2ccc(C(=O)NCc3ccn4ccnc4c3)s2)cn1 [Example 345, N-(imidazo[1,2-a]pyridin-7-ylmethyl)-5-(1-methyl-1H-pyrazol-4-yl)thiophene-2-carboxamide] | 201 | 281 | 0.27
CC(C)(O)C(=O)N1CC[C@H](Oc2ccc(C(=O)NCc3ccn4ccnc4c3)cc2)C1 [Example 348, 4-{[(3S)-1-(2-hydroxy-2-methylpropanoyl)pyrrolidin-3-yl]oxy}-N-(imidazo[1,2-a]pyridin-7-ylmethyl)benzamide] | > 10000 | > 10000 | 1.52
COCC(C)C(=O)N1CC[C@H](Oc2ccc(C(=O)NCc3ccn4ccnc4c3)cc2)C1 (stereo partly drawn) [Example 349, N-(imidazo[1,2-a]pyridin-7-ylmethyl)-4-{[(3S)-1-(3-methoxy-2-methylpropanoyl)pyrrolidin-3-yl]oxy}benzamide] | 4110 | 5510 | 0.736
O=C(NCc1ccn2ccnc2c1)c1ccc(O[C@H]2CCN(C(=O)c3ccccc3)C2)cc1 [Example 353, 4-{[(3S)-1-benzoylpyrrolidin-3-yl]oxy}-N-(imidazo[1,2-a]pyridin-7-ylmethyl)benzamide] | 3170 | 7510 | 0.47
CC(C)(O)CC(=O)N1CC[C@H](Oc2ccc(C(=O)NCc3ccn4ccnc4c3)cc2)C1 [Example 354, 4-{[(3S)-1-(3-hydroxy-3-methylbutanoyl)pyrrolidin-3-yl]oxy}-N-(imidazo[1,2-a]pyridin-7-ylmethyl)benzamide] | > 10000 | 7490 | 0.526
O=C(NCc1ccn2ccnc2c1)c1cnc(N2CCN(C(=O)c3ccccc3)CC2)s1 [Example 355, 2-(4-benzoylpiperazin-1-yl)-N-(imidazo[1,2-a]pyridin-7-ylmethyl)-1,3-thiazole-5-carboxamide] | 831 | 1940 | 0.169
CC(C)N1CCN(c2ncc(C(=O)NCc3ccn4ccnc4c3)s2)CC1 [Example 356, N-(imidazo[1,2-a]pyridin-7-ylmethyl)-2-[4-(propan-2-yl)piperazin-1-yl]-1,3-thiazole-5-carboxamide] | > 10000 | 1020 | 0.169
COCCN1CCN(c2ncc(C(=O)NCc3ccn4ccnc4c3)s2)CC1 [Example 357, N-(imidazo[1,2-a]pyridin-7-ylmethyl)-2-[4-(2-methoxyethyl)piperazin-1-yl]-1,3-thiazole-5-carboxamide] | > 10000 | 6740 | 0.291
CC(C)CCNC(=O)c1ccc(C(=O)NCc2ccc3nccn3c2)cc1 [Example 358, N-(imidazo[1,2-a]pyridin-6-ylmethyl)-N′-(3-methylbutyl)benzene-1,4-dicarboxamide] | 1840 | 2260 | 2.19
O=C(NCc1ccc2nccn2c1)c1ccc(C(=O)NC[C@@H]2CCOC2)cc1 [Example 359, N-(imidazo[1,2-a]pyridin-6-ylmethyl)-N′-[(3S)-tetrahydrofuran-3-ylmethyl]benzene-1,4-dicarboxamide] | > 10000 | 8770 | 2.5

Other lines, results leading:

IC50 [1] [nM] | IC50 [2] [nM] | IC50 [3] [nM] | SMILES
583 | 116 | 0.346 | O=C(NCc1ccn2ccnc2c1)Nc1ccc(O[C@@H]2CCN(C(=O)C3CCOCC3)C2)cc1 [Example 333, 1-(imidazo[1,2-a]pyridin-7-ylmethyl)-3-(4-{[(3R)-1-(tetrahydro-2H-pyran-4-ylcarbonyl)pyrrolidin-3-yl]oxy}phenyl)urea]
497 | 533 | 0.205 | O=C(NCc1ccn2ccnc2c1)Nc1ccc(O[C@@H]2CCN(C(=O)C3CCOC3)C2)cc1 (stereo partly drawn) [Example 337, 1-(imidazo[1,2-a]pyridin-7-ylmethyl)-3-(4-{[(3R)-1-(tetrahydrofuran-3-ylcarbonyl)pyrrolidin-3-yl]oxy}phenyl)urea]
> 10000 | 9180 | 0.797 | O=C(NCc1ccn2ccnc2c1)c1ccc(O[C@H]2CCN(C(=O)[C@@H]3CCOC3)C2)cc1 [Example 339, N-(imidazo[1,2-a]pyridin-7-ylmethyl)-4-({(3S)-1-[(3R)-tetrahydrofuran-3-ylcarbonyl]pyrrolidin-3-yl}oxy)benzamide]
> 10000 | > 10000 | 0.817 | O=C(NCc1ccn2ccnc2c1)c1ccc(O[C@H]2CCN(C(=O)[C@H]3CCCO3)C2)cc1 [Example 340, N-(imidazo[1,2-a]pyridin-7-ylmethyl)-4-({(3S)-1-[(2R)-tetrahydrofuran-2-ylcarbonyl]pyrrolidin-3-yl}oxy)benzamide]
> 10000 | 8300 | 0.719 | O=C(NCc1ccn2ccnc2c1)c1ccc(O[C@H]2CCN(C(=O)[C@@H]3CCCO3)C2)cc1 [Example 341, N-(imidazo[1,2-a]pyridin-7-ylmethyl)-4-({(3S)-1-[(2S)-tetrahydrofuran-2-ylcarbonyl]pyrrolidin-3-yl}oxy)benzamide]
> 10000 | 6730 | 0.454 | O=C(NCc1ccn2ccnc2c1)c1ccc(O[C@H]2CCN(C(=O)C3CCOCC3)C2)cc1 [Example 342, N-(imidazo[1,2-a]pyridin-7-ylmethyl)-4-{[(3S)-1-(tetrahydro-2H-pyran-4-ylcarbonyl)pyrrolidin-3-yl]oxy}benzamide]
> 10000 | 6530 | 0.456 | O=C(NCc1ccn2ccnc2c1)c1ccc(O[C@H]2CCN(C(=O)CC3CCOCC3)C2)cc1 [Example 343, N-(imidazo[1,2-a]pyridin-7-ylmethyl)-4-{[(3S)-1-(tetrahydro-2H-pyran-4-ylacetyl)pyrrolidin-3-yl]oxy}benzamide]
3110 | 7020 | 0.548 | O=C(NCc1ccn2ccnc2c1)c1ccc(O[C@H]2CCN(C(=O)[C@H]3CCOC3)C2)cc1 [Example 346, N-(imidazo[1,2-a]pyridin-7-ylmethyl)-4-({(3S)-1-[(3S)-tetrahydrofuran-3-ylcarbonyl]pyrrolidin-3-yl}oxy)benzamide]
4730 | 8080 | 0.667 | O=C(NCc1ccn2ccnc2c1)c1ccc(O[C@H]2CCN(C(=O)CC3CC3)C2)cc1 [Example 347, 4-{[(3S)-1-(cyclopropylacetyl)pyrrolidin-3-yl]oxy}-N-(imidazo[1,2-a]pyridin-7-ylmethyl)benzamide]
> 10000 | 8170 | 0.795 | CCCC(=O)N1CC[C@H](Oc2ccc(C(=O)NCc3ccn4ccnc4c3)cc2)C1 [Example 350, 4-{[(3S)-1-butanoylpyrrolidin-3-yl]oxy}-N-(imidazo[1,2-a]pyridin-7-ylmethyl)benzamide]
8390 | 8110 | 0.792 | CC(C)C(=O)N1CC[C@H](Oc2ccc(C(=O)NCc3ccn4ccnc4c3)cc2)C1 [Example 351, N-(imidazo[1,2-a]pyridin-7-ylmethyl)-4-{[(3S)-1-(2-methylpropanoyl)pyrrolidin-3-yl]oxy}benzamide]
> 10000 | 9800 | 1.06 | O=C(NCc1ccn2ccnc2c1)c1ccc(O[C@H]2CCN(C(=O)C3CC3)C2)cc1 [Example 352, 4-{[(3S)-1-(cyclopropylcarbonyl)pyrrolidin-3-yl]oxy}-N-(imidazo[1,2-a]pyridin-7-ylmethyl)benzamide]
